Experiments:
[1] = molecular target: Vascular endothelial growth factor receptor 2 (Homo sapiens, UniProt P35968)
Description: Inhibition of KDR by TR-FRET assay

[2] = molecular target: T1, Mast/stem cell growth factor receptor Kit (Homo sapiens, UniProt P10721)
Description: Inhibition of c-Kit by TR-FRET assay

[3] = molecular target: Tyrosine-protein kinase Lck (Homo sapiens, UniProt P06239)
Description: Inhibition of Lck by TR-FRET assay

[4] = molecular target: T1, Mast/stem cell growth factor receptor Kit; remark: listed apart in the source
Description: Inhibition of SCF-induced phosphorylation of c-Kit in MO7e cells by TR-FRET assay

[5] = Inhibition of p38 by TR-FRET assay
[6] = molecular target: Proto-oncogene tyrosine-protein kinase Src (Homo sapiens, UniProt P12931)
Chain of Proto-oncogene tyrosine-protein kinase Src (P12931 2-536 limits assumed): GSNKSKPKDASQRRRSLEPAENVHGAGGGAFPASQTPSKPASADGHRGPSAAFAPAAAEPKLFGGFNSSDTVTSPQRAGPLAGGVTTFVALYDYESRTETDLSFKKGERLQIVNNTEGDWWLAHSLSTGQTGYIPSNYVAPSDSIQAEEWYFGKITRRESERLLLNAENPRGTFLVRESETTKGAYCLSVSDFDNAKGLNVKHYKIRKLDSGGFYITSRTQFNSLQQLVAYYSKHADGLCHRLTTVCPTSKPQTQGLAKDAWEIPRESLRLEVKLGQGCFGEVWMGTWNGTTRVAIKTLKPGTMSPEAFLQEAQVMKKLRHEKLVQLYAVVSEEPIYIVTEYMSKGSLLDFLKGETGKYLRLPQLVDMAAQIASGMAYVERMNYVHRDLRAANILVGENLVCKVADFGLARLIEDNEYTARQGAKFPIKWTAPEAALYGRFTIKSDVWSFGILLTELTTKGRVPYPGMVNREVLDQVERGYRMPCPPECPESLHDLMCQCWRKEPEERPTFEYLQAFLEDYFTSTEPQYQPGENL
Description: Inhibition of Src by TR-FRET assay

[7] = Half life in Sprague-Dawley rat at 2 mg/kg, po; format: ADME, organism-based; set-up: dose 2 mg/kg, route oral; conditions: in vivo
[8] = Volume of distribution at steady state in Sprague-Dawley rat at 1 mg/kg, iv; format: ADME, organism-based; set-up: dose 1 mg/kg, route intravenous; conditions: in vivo, read-out: Vdss
[9] = AUC (0 to t) in Sprague-Dawley rat at 2 mg/kg, po; format: ADME, organism-based; set-up: dose 2 mg/kg, route oral; conditions: plasma
[10] = Cmax in Sprague-Dawley rat at 2 mg/kg, po; format: ADME, organism-based; set-up: dose 2 mg/kg, route oral; conditions: in vivo
[11] = Oral bioavailability in Sprague-Dawley rat at 2 mg/kg; format: ADME, organism-based; conditions: in vivo
[12] = Clearance in Sprague-Dawley rat at 1 mg/kg, iv; format: ADME, organism-based; set-up: dose 1 mg/kg, route intravenous; conditions: in vivo

T1 sequence (P10721 whole entry): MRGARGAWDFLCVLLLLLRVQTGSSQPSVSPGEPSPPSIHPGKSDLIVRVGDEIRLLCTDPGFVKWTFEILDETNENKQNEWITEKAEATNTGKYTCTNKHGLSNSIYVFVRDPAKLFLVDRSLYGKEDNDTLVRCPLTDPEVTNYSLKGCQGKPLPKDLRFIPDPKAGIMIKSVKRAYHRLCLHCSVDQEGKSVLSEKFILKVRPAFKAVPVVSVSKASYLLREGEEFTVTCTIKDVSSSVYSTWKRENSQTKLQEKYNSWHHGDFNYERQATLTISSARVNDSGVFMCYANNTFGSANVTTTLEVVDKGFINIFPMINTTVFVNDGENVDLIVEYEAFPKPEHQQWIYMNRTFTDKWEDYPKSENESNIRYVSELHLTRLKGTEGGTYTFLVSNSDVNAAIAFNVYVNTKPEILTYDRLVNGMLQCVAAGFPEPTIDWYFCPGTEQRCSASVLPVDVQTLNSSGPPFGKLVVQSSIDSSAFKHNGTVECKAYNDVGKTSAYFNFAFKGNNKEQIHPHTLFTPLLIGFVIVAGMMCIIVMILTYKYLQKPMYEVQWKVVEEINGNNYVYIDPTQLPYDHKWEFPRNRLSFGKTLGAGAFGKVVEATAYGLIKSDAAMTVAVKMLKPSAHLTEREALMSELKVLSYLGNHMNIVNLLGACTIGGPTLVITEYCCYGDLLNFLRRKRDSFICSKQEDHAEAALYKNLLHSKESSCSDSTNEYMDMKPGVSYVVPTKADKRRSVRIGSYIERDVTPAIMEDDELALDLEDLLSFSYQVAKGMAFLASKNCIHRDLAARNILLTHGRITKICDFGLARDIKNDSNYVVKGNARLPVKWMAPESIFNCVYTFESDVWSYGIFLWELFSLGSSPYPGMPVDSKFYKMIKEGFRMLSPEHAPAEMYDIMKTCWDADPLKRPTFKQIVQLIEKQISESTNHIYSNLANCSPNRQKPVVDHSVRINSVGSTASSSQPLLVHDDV
Chain of Tyrosine-protein kinase Lck (P06239 whole entry): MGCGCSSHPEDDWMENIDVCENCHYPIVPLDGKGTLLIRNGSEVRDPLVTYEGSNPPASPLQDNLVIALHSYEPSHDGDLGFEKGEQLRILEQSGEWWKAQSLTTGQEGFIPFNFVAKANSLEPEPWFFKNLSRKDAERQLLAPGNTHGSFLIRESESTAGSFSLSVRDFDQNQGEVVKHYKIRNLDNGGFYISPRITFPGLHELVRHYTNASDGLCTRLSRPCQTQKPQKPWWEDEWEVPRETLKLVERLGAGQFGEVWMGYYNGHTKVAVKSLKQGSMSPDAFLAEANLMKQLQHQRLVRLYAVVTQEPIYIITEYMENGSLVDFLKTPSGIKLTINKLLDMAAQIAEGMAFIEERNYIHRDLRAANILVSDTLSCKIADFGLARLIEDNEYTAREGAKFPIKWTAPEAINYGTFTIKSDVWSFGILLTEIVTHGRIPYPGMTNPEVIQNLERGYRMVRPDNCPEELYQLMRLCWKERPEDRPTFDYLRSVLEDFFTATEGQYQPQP
Chain of Vascular endothelial growth factor receptor 2 (P35968 whole entry): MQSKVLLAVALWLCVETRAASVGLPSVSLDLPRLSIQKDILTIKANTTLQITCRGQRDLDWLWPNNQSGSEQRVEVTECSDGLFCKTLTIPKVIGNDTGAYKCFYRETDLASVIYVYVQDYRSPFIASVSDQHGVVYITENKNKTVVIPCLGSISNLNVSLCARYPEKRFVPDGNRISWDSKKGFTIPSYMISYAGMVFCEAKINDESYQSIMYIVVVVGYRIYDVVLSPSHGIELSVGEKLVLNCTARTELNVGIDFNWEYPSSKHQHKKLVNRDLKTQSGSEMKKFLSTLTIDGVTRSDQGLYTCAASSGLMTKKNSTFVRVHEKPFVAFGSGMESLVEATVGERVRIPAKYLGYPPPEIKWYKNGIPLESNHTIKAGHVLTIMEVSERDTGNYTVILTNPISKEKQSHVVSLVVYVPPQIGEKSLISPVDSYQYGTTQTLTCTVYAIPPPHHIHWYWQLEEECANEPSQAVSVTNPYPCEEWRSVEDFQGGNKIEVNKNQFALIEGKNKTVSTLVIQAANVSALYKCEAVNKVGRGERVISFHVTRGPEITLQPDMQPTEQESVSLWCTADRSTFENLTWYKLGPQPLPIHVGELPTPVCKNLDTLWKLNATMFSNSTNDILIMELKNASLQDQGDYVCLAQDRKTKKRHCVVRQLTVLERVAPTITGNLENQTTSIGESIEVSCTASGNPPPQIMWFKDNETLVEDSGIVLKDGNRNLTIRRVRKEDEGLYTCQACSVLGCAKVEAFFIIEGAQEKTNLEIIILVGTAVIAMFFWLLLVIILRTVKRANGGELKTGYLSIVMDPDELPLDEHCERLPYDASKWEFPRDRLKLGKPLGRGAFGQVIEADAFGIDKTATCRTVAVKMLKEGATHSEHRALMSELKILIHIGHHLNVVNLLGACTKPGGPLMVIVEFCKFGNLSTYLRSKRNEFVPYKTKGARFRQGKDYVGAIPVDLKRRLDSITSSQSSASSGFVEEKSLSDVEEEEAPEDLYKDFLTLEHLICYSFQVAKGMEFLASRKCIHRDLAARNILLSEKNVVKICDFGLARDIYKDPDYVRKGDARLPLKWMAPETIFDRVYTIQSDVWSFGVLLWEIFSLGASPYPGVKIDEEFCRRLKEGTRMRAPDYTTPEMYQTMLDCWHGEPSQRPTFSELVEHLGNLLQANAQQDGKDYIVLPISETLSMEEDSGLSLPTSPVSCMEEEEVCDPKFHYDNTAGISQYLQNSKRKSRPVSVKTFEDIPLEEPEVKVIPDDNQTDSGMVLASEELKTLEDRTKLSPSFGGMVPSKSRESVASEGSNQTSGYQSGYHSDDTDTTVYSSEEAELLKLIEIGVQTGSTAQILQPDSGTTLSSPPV

Compound | IC50 [1] | IC50 [2] | IC50 [3] | IC50 [4] | IC50 [5] | IC50 [6] | half-life [7] | Vd [8] | AUC(0-t) [9] | Cmax [10] | bioavailability [11] | clearance [12]
Cc1ccn(-c2ccc(C(F)(F)F)cc2)c(=O)c1-c1ccc2nc(N)ncc2c1 | 1.8 µM | 0.0079 µM | 1.2 µM | 0.018 µM | 3.9 µM | 0.75 µM | – | – | – | – | – | –
Cc1ccn(-c2ccc(N3CCOCC3)cc2)c(=O)c1-c1ccc2nc(N)ncc2c1 | 4.4 µM | – | 1.8 µM | 0.072 µM | 21 µM | 1.4 µM | – | – | – | – | – | –
Cc1cc(-n2ccc(C)c(-c3ccc4nc(N)ncc4c3)c2=O)ccc1F | 4.3 µM | – | 0.74 µM | 0.018 µM | 4.5 µM | 0.043 µM | – | – | – | – | – | –
CCOC(=O)c1ccc(-n2ccc(C)c(-c3ccc4nc(N)ncc4c3)c2=O)cc1 | > 5 µM | – | 0.23 µM | 0.068 µM | 7.5 µM | 0.17 µM | – | – | – | – | – | –
CC(=O)c1ccc(-n2ccc(C)c(-c3ccc4nc(N)ncc4c3)c2=O)cc1 | > 5 µM | – | 0.57 µM | – | 18 µM | 0.39 µM | – | – | – | – | – | –
Cc1ccc(-n2ccc(C)c(-c3ccc4nc(N)ncc4c3)c2=O)cc1F | > 5 µM | – | 25 µM | 0.012 µM | 40 µM | 25 µM | 2.9 h | 2.39 L/kg | 1310 ng·h/mL | 280 ng/mL | 100% | 32.5 mL/min/kg
Cc1ccn(-c2ccc(Cl)cc2)c(=O)c1-c1ccc2nc(N)ncc2c1 | > 5 µM | – | 0.34 µM | 0.014 µM | 4.9 µM | 0.26 µM | – | – | – | – | – | –
Cc1ccn(-c2ccc(C(C)(C)C)cc2)c(=O)c1-c1ccc2nc(N)ncc2c1 | 0.011 µM | 0.0021 µM | 0.0072 µM | 0.016 µM | 0.028 µM | 0.036 µM | – | – | – | – | – | –
Cc1ccn(CCC2CCCC2)c(=O)c1-c1ccc2nc(N)ncc2c1 | 1.4 µM | 0.001 µM | 0.58 µM | – | 5.8 µM | 0.8 µM | – | – | – | – | – | –

— ChEMBL document CHEMBL1150317, “Discovery of aryl aminoquinazoline pyridones as potent, selective, and orally efficacious inhibitors of receptor tyrosine kinase c-Kit” (J Med Chem, 2008)
